Converted amounts (≈) assume the structure as drawn. Like-named read-outs stand apart in the source and are kept apart here.
Assays:
[1] = system: Escherichia coli (ATCC 35210); assay: Antibacterial microdilution (MIC/MBC); assay type: cell-based; settings: E. coli
How it was run: (§1)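 Read-out: lowest concentration preventing growth (MIC) and lowest concentration killing the bacteria (MBC). Method was a modified microdilution, with streptomycin and ampicillin included for reference.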

[2] = system: Staphylococcus aureus (ATCC 6538); assay: Antibacterial microdilution (MIC/MBC); assay type: cell-based; settings: Staphylococcus aureus, ATCC6538, S.a. (S. aureus)
How it was run: as §1

[3] = system: Enterobacter cloacae (clinical isolate); assay: Antibacterial microdilution (MIC/MBC); assay type: cell-based; settings: En.cl (En. cloacae)
How it was run: as §1

[4] = system: Listeria monocytogenes (NCTC 7973); assay: Antibacterial microdilution (MIC/MBC); assay type: cell-based; settings: Listeria monocytogenes, NCTC7973, L.m. (L. monocytogenes)
How it was run: as §1

[5] = system: Bacillus cereus (clinical isolate); assay: Antibacterial microdilution (MIC/MBC); assay type: cell-based; settings: B.c. (B. cereus)
How it was run: as §1

M. flavus = assay: Antibacterial microdilution (MIC/MBC); assay type: cell-based; settings: Micrococcus flavus; M.f. (M. flavus)
How it was run: as §1

P. aeruginosa = assay: Antibacterial microdilution (MIC/MBC); assay type: cell-based; settings: P.a. (P. aeruginosa)
How it was run: as §1

[6] = system: Salmonella typhimurium (ATCC 13311); assay: Antibacterial microdilution (MIC/MBC); assay type: cell-based; settings: S.t. (S. typhimurium)
How it was run: as §1

in vitro = assay type: cell-based; settings: human
Procedure: To evaluate cytotoxicity, compounds 1, 2, 8, and 11 were chosen to be tested in the human normal fetal lung fibroblast MRC-5 cell line within the following range of three concentrations for each substance: 1 × 10^−7 M (0.1 μM), 1 × 10^−6 Μ (1 μM), and 1 × 10^−5 M (10 μΜ). […] More specifically, under this exposure to compound 11, the cellular viability was measured to the level of 91.0%.
The normal human fetal lung fibroblast MRC-5 cell line was maintained and used in our laboratory (Dr. I.s.Vizirianakis, Laboratory of Pharmacology, School of Pharmacy, Aristotle University of Thessaloniki, Greece) (passage 15 < 40), as previously published. Cells were grown in culture under the following conditions: 37 °C, humidified atmosphere containing 5% v/v CO2, in DMEM (Dulbecco’s modified Eagle Medium) enriched with 10% FBS and 1% PS. The compounds tested were dissolved in DMSO and stored at 4 °C. […] After the incubation, the OD for each well was determined at 450 nm in a multifunction microplate reader. […] Statistical t-test and one-way analysis of variance (ANOVA) were performed via the use of the SPSS program and the significance level was determined at p < 0.05.

[7] = system: Aspergillus fumigatus (ATCC 1022); assay: Antifungal bioassay (MIC/MFC); assay type: cell-based; settings: ATCC1022, A.f. (A. fumigatus)
How it was run: (§2)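 Duplicate runs per organism.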

P. ochrochloron = assay: Antifungal bioassay (MIC/MFC); assay type: cell-based; settings: Penicillium ochrochloron
How it was run: as §2

[8] = system: Aspergillus versicolor (ATCC 11730); assay: Antifungal bioassay (MIC/MFC); assay type: cell-based; settings: ATCC11730, A.v. (A. versicolor)
How it was run: as §2

[9] = system: Penicillium funiculosum (ATCC 36839); assay: Antifungal bioassay (MIC/MFC); assay type: cell-based; settings: Talaromyces funiculosus, ATCC36839; P.f. (P. funiculosum)
How it was run: as §2

[10] = system: Aspergillus niger (ATCC 6275); assay: Antifungal bioassay (MIC/MFC); assay type: cell-based; settings: ATCC6275, A.n. (A. niger)
How it was run: as §2

[11] = system: Trichoderma viride (IAM 5061); assay: Antifungal bioassay (MIC/MFC); assay type: cell-based; settings: T.v. (T. viride)
How it was run: as §2

A. ochraceus = assay: Antifungal bioassay (MIC/MFC); assay type: cell-based; settings: A.o. (A. ochraceus)
How it was run: as §2

[12] = system: Penicillium verrucosum var. cyclopium (food isolate); assay: Antifungal bioassay (MIC/MFC); assay type: cell-based

`COC(=O)c1[nH]c2ccccc2c1/C=C1\SC(=S)N(CC(=O)O)C1=O` [Compound 11, (Z)-2-(5-((2-(methoxycarbonyl)-1H-indol-3-yl)methylene)-4-oxo-2-thioxothiazolidin-3-yl)acetic acid] gave a melting point of 292 to 294 °C, an MIC [1] of 0.015 ± 0.009 mg/mL (≈ 39.8 µM) and an MBC ([1]; Escherichia coli, ATCC35210) of 30 ± 10 µg/mL (≈ 79.7 µM). For the same molecule, the MIC ([1]; Escherichia coli, ATCC35210, read-out: MIC) was 0.015 mg/mL (≈ 39.8 µM), the MBC [2] was 15 ± 9 µg/mL (≈ 39.8 µM) and the MIC ([2]; read-out: MIC) was 8 ± 0.6 µg/mL (≈ 21.3 µM). It also gave an MIC [3] of 0.011 ± 0.01 mg/mL (≈ 29.2 µM), an MBC ([3]; Enterobacter cloacae) of 30 ± 10 µg/mL (≈ 79.7 µM) and an MIC ([3]; Enterobacter cloacae, read-out: MIC) of 0.011 mg/mL (≈ 29.2 µM). For the same molecule, the MBC [4] was 60 ± 6 µg/mL (≈ 159 µM), the MIC ([4]; read-out: MIC) was 30 ± 10 µg/mL (≈ 79.7 µM) and the MIC [5] was 8 ± 0.6 µg/mL (≈ 21.3 µM). For the same molecule, the MBC ([5]; Bacillus cereus) was 15 ± 9 µg/mL (≈ 39.8 µM), the MIC ([5]; Bacillus cereus, read-out: MIC) was 8 µg/mL (≈ 21.3 µM) and the MBC (M. flavus) was 60 ± 6 µg/mL (≈ 159 µM). The MIC (M. flavus) was 30 ± 10 µg/mL (≈ 79.7 µM), the MIC (P. aeruginosa) was 0.011 ± 0.01 mg/mL (≈ 29.2 µM) and the MBC (P. aeruginosa; Pseudomonas aeruginosa) was 30 ± 10 µg/mL (≈ 79.7 µM). It also gave an MIC (P. aeruginosa; Pseudomonas aeruginosa, read-out: MIC) of 0.011 mg/mL (≈ 29.2 µM), an MIC [6] of 0.015 ± 0.009 mg/mL (≈ 39.8 µM) and an MBC ([6]; Salmonella enterica) of 30 ± 10 µg/mL (≈ 79.7 µM). It also gave an MIC ([6]; Salmonella enterica, read-out: MIC) of 0.015 mg/mL (≈ 39.8 µM), a viability at 48 h, 1 µM (in vitro) of 91% and a viability at 48 h, 10 µM (in vitro) of 91%. It also gave an MFC [7] of 120 ± 40 µg/mL (≈ 319 µM), an MIC [7] of 60 ± 6 µg/mL (≈ 159 µM) and an MFC (P. ochrochloron; P.o. (P. ochrochloron)) of 30 ± 10 µg/mL (≈ 79.7 µM). It also gave an MIC (P. ochrochloron; P.o. (P. ochrochloron; text: P. ochramensis), read-out: MIC) of 15 ± 3 µg/mL (≈ 39.8 µM), an MFC [8] of 30 ± 10 µg/mL (≈ 79.7 µM) and an MIC [8] of 15 ± 3 µg/mL (≈ 39.8 µM). For the same molecule, the MFC [9] was 30 ± 10 µg/mL (≈ 79.7 µM), the MIC [9] was 15 ± 3 µg/mL (≈ 39.8 µM) and the MFC [10] was 30 ± 10 µg/mL (≈ 79.7 µM). For the same molecule, the MIC [10] was 15 ± 3 µg/mL (≈ 39.8 µM), the MIC [11] was 8 ± 0.6 µg/mL (≈ 21.3 µM) and the MFC ([11]; Trichoderma viride, IAM5061) was 15 ± 3 µg/mL (≈ 39.8 µM). For the same molecule, the MIC ([11]; Trichoderma viride, IAM5061, read-out: MIC) was 8 µg/mL (≈ 21.3 µM), the MIC (A. ochraceus) was 8 ± 0.6 µg/mL (≈ 21.3 µM) and the MFC (A. ochraceus; Aspergillus ochraceus) was 15 ± 3 µg/mL (≈ 39.8 µM). The MIC (A. ochraceus; Aspergillus ochraceus, read-out: MIC) was 8 µg/mL (≈ 21.3 µM), the MFC [12] was 30 ± 10 µg/mL (≈ 79.7 µM) and the MIC [12] was 15 ± 3 µg/mL (≈ 39.8 µM).

Source: PMC9865890, “N-Derivatives of (Z)-Methyl 3-(4-Oxo-2-thioxothiazolidin-5-ylidene)methyl)-1H-indole-2-carboxylates as Antimicrobial Agents—In Silico and In Vitro Evaluation” (Pharmaceuticals, 2023)
